Data taken from ChEMBL document CHEMBL4000244, “Probing A-form DNA: A fluorescent aminosugar probe and dual recognition by anthraquinone-neomycin conjugates” (Bioorg Med Chem, 2017).

Tests used:
[1] = Binding affinity to 5'-GCCCCCCG-3' DNA hairpin assessed as change in fluorescence intensity at 1 uM after 45 mins by fluorescence quenching analysis relative to control
[2] = Binding affinity to 5'-GGGGCCGG-3' DNA hairpin assessed as change in fluorescence intensity at 1 uM after 45 mins by fluorescence quenching analysis relative to control
[3] = Binding affinity to 5'-GCGGCCCC-3' DNA hairpin assessed as change in fluorescence intensity at 1 uM after 45 mins by fluorescence quenching analysis relative to control
[4] = Binding affinity to 5'-CCGGGGCG-3' DNA hairpin assessed as change in fluorescence intensity at 1 uM after 45 mins by fluorescence quenching analysis relative to control
[5] = Binding affinity to 5'-GGCCGGGG-3' DNA hairpin assessed as change in fluorescence intensity at 1 uM after 45 mins by fluorescence quenching analysis relative to control
[6] = Binding affinity to 5'-CCCGGGGG-3' DNA hairpin assessed as change in fluorescence intensity at 1 uM after 45 mins by fluorescence quenching analysis relative to control
[7] = Binding affinity to 5'-GCGGGGCC-3' DNA hairpin assessed as change in fluorescence intensity at 1 uM after 45 mins by fluorescence quenching analysis relative to control
[8] = Binding affinity to 5'-GGCGGGGG-3' DNA hairpin assessed as change in fluorescence intensity at 1 uM after 45 mins by fluorescence quenching analysis relative to control
[9] = Binding affinity to 5'-GCGGCGGG-3' DNA hairpin assessed as change in fluorescence intensity at 1 uM after 45 mins by fluorescence quenching analysis relative to control
[10] = Binding affinity to 5'-CGGCGGCC-3' DNA hairpin assessed as change in fluorescence intensity at 1 uM after 45 mins by fluorescence quenching analysis relative to control
[11] = Binding affinity to 5'-GGGCCGGC-3' DNA hairpin assessed as change in fluorescence intensity at 1 uM after 45 mins by fluorescence quenching analysis relative to control
[12] = Binding affinity to 5'-CCCGGCCG-3' DNA hairpin assessed as change in fluorescence intensity at 1 uM after 45 mins by fluorescence quenching analysis relative to control
[13] = Binding affinity to 5'-GCGCGCGC-3' DNA hairpin assessed as change in fluorescence intensity at 1 uM after 45 mins by fluorescence quenching analysis relative to control
[14] = Binding affinity to 5'-CGGGGCGG-3' DNA hairpin assessed as change in fluorescence intensity at 1 uM after 45 mins by fluorescence quenching analysis relative to control
[15] = Binding affinity to 5'-GGCCGGGC-3' DNA hairpin assessed as change in fluorescence intensity at 1 uM after 45 mins by fluorescence quenching analysis relative to control
[16] = Binding affinity to 5'-GCGGCGCG-3' DNA hairpin assessed as change in fluorescence intensity at 1 uM after 45 mins by fluorescence quenching analysis relative to control
[17] = Binding affinity to 5'-GCGCCGCG-3' DNA hairpin assessed as change in fluorescence intensity at 1 uM after 45 mins by fluorescence quenching analysis relative to control
[18] = Binding affinity to 5'-CGCCCGGG-3' DNA hairpin assessed as change in fluorescence intensity at 1 uM after 45 mins by fluorescence quenching analysis relative to control
[19] = Binding affinity to 5'-CGGCCGCC-3' DNA hairpin assessed as change in fluorescence intensity at 1 uM after 45 mins by fluorescence quenching analysis relative to control
[20] = Binding affinity to 5'-GCGGCGGC-3' DNA hairpin assessed as change in fluorescence intensity at 1 uM after 45 mins by fluorescence quenching analysis relative to control
[21] = Binding affinity to 5'-CGGGCCGG-3' DNA hairpin assessed as change in fluorescence intensity at 1 uM after 45 mins by fluorescence quenching analysis relative to control
[22] = Binding affinity to 5'-CCGCGGGG-3' DNA hairpin assessed as change in fluorescence intensity at 1 uM after 45 mins by fluorescence quenching analysis relative to control
[23] = Binding affinity to 5'-CGCCGGCC-3' DNA hairpin assessed as change in fluorescence intensity at 1 uM after 45 mins by fluorescence quenching analysis relative to control
[24] = Binding affinity to 5'-CCGCCCGC-3' DNA hairpin assessed as change in fluorescence intensity at 1 uM after 45 mins by fluorescence quenching analysis relative to control
[25] = Binding affinity to 5'-CCCGCCGC-3' DNA hairpin assessed as change in fluorescence intensity at 1 uM after 45 mins by fluorescence quenching analysis relative to control
[26] = Binding affinity to 5'-GCCCGCGG-3' DNA hairpin assessed as change in fluorescence intensity at 1 uM after 45 mins by fluorescence quenching analysis relative to control
[27] = Binding affinity to 5'-GGCGGCGC-3' DNA hairpin assessed as change in fluorescence intensity at 1 uM after 45 mins by fluorescence quenching analysis relative to control
[28] = Binding affinity to 5'-CGGGCGGG-3' DNA hairpin assessed as change in fluorescence intensity at 1 uM after 45 mins by fluorescence quenching analysis relative to control
[29] = Binding affinity to 5'-CGCCGGCG-3' DNA hairpin assessed as change in fluorescence intensity at 1 uM after 45 mins by fluorescence quenching analysis relative to control
[30] = Binding affinity to 5'-CCCGCCGG-3' DNA hairpin assessed as change in fluorescence intensity at 1 uM after 45 mins by fluorescence quenching analysis relative to control
[31] = Binding affinity to 5'-CGCGCCGC-3' DNA hairpin assessed as change in fluorescence intensity at 1 uM after 45 mins by fluorescence quenching analysis relative to control
[32] = Binding affinity to 5'-GCCGGGCC-3' DNA hairpin assessed as change in fluorescence intensity at 1 uM after 45 mins by fluorescence quenching analysis relative to control
[33] = Binding affinity to 5'-GGGCGGCG-3' DNA hairpin assessed as change in fluorescence intensity at 1 uM after 45 mins by fluorescence quenching analysis relative to control
[34] = Binding affinity to 5'-GGCGGGCC-3' DNA hairpin assessed as change in fluorescence intensity at 1 uM after 45 mins by fluorescence quenching analysis relative to control
[35] = Binding affinity to 5'-GGCGGCCG-3' DNA hairpin assessed as change in fluorescence intensity at 1 uM after 45 mins by fluorescence quenching analysis relative to control
[36] = Binding affinity to 5'-GGCGCGCG-3' DNA hairpin assessed as change in fluorescence intensity at 1 uM after 45 mins by fluorescence quenching analysis relative to control

NCC1O[C@H](O[C@H]2[C@@H](O)[C@H](O[C@@H]3[C@@H](O)[C@H](N)C[C@H](N)[C@H]3O[C@H]3O[C@H](CN)[C@@H](O)[C@H](O)[C@H]3N)O[C@@H]2CSCCNC(=O)CCSCC(=O)Nc2ccc(-c3c4ccc(=O)cc-4oc4cc(O)ccc34)c(C(=O)O)c2)[C@H](N)[C@@H](O)[C@@H]1O (stereo partly specified)
Activity [1]: 19.8%
Activity [2]: 28.3%
Activity [3]: 37.2%
Activity [4]: 37.5%
Activity [5]: 38.1%
Activity [6]: 38.7%
Activity [7]: 40.4%
Activity [8]: 41.5%
Activity [9]: 43.5%
Activity [10]: 43.8%
Activity [11]: 44.4%
Activity [12]: 44.5%
Activity [13]: 45.2%
Activity [14]: 45.5%
Activity [15]: 45.6%
Activity [16]: 45.8%
Activity [17]: 46.9%
Activity [18]: 47.2%
Activity [19]: 47.7%
Activity [20]: 47.7%
Activity [21]: 48.2%
Activity [22]: 48.6%
Activity [23]: 48.6%
Activity [24]: 48.7%
Activity [25]: 48.9%
Activity [26]: 50.3%
Activity [27]: 50.6%
Activity [28]: 50.6%
Activity [29]: 50.8%
Activity [30]: 50.9%
Activity [31]: 50.9%
Activity [32]: 51%
Activity [33]: 52.7%
Activity [34]: 53.2%
Activity [35]: 56.4%
Activity [36]: 57.1%
